We go through 27 compounds from patent US8546376B2, “Pharmaceutical compounds” (Almac Discovery Limited, priority 2009, dated 2013).

Structures can show the parent of a compound that is named as a salt.

Common to all, as to format: biochemical
One experiment has as its target T1, AKT1 (Homo sapiens, UniProt P31749).
T1 construct: purchased SignalChem
Briefly: AKT Kinase Assay (IMAP fluorescent polarisation) vs AKT1. The conditions noted are these: activated AKT1, FAM Crosstide substrate. The method in brief:
(§1)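 IC50 values came from non-linear regression of % inhibition relative to vehicle, measured by IMAP fluorescence polarisation (485/528 nm) after a 1 h room-temperature reaction of FAM-Crosstide and ATP. Each activated isoform was first exposed to compound for 45 min across fourteen half-log doses.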

The next experiment deals with T2, AKT2 (Homo sapiens, UniProt P31751).
T2 construct: purchased SignalChem
T2 sequence (P31751 whole entry): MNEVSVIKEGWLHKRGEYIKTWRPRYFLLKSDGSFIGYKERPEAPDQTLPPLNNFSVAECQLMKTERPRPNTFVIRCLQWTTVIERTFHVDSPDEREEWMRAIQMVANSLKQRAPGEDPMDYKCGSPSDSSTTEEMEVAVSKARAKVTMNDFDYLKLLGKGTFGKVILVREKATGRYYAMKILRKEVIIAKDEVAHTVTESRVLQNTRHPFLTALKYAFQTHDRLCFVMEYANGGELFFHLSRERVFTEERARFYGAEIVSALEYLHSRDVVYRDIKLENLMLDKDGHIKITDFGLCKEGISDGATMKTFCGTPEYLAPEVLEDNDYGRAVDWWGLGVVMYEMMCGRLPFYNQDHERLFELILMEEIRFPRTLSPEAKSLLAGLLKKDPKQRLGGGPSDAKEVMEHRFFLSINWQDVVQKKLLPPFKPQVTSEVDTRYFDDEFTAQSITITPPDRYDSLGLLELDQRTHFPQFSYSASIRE
Briefly: AKT Kinase Assay (IMAP fluorescent polarisation) vs AKT2. The conditions noted are these: activated AKT2, FAM Crosstide substrate. The method in brief:
as §1

In the next experiment the target is T3, AKT3 (Homo sapiens, UniProt Q9Y243).
T3 construct: purchased SignalChem
T3 sequence (Q9Y243 whole entry): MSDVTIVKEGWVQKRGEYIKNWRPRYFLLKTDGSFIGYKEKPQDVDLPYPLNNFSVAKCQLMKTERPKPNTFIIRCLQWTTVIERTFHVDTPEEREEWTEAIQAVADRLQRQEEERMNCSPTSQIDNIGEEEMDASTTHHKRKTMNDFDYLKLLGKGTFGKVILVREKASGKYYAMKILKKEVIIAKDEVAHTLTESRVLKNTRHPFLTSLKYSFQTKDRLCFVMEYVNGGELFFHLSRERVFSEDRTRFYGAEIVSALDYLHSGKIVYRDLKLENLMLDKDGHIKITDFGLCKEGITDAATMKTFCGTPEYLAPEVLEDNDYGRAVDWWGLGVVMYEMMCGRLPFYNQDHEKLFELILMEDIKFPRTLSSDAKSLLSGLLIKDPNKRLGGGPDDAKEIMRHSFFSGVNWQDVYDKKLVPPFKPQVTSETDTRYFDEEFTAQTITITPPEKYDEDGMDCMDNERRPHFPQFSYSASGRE
The experiment can be described thus: AKT Kinase Assay (IMAP fluorescent polarisation) vs AKT3. The conditions noted are these: activated AKT3, FAM Crosstide substrate. The method in brief: as §1

T1 sequence (P31749 whole entry): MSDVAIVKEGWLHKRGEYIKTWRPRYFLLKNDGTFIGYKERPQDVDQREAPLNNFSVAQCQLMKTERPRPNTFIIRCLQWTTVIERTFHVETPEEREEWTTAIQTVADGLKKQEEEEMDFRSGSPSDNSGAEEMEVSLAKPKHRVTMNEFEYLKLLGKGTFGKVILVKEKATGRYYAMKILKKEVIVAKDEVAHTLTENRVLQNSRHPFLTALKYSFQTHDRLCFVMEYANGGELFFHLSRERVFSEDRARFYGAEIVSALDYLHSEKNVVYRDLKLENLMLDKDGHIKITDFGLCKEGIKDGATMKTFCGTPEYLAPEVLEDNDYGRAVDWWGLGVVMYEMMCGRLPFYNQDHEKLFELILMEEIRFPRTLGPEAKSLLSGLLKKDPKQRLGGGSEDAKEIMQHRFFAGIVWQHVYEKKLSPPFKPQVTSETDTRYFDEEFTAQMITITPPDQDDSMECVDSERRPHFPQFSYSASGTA

On to `NC1(c2ccc(-c3c(-c4ccccc4)oc4c(-c5cc[nH]n5)cccc4c3=O)cc2)CCC1` [Example 53, 3-[4-(1-Amino-cyclobutyl)-phenyl]-2-phenyl-8-(1H-pyrazol-3-14)-chromen-4-one hydrochloride], for which the IC50 (as a rule, the point on the concentration scale where inhibition reaches its midpoint) is no more than 1000 nM at AKT1, no more than 1000 nM at AKT2 and 1000 to 10000 nM on AKT3.
Turning to `NC1(c2ccc(-c3c(-c4ccccc4)oc4nc(Cl)ccc4c3=O)cc2)CCC1` [Example 38, 3-[4-(1-Amino-cyclobutyl)-phenyl]-7-chloro-2-phenyl-pyrano[2,3-b]pyridin-4], the half-inhibitory concentration (IC50) on AKT1 is 1000 to 10000 nM; at AKT2, 1000 to 10000 nM; at AKT3, greater than 10000 nM.
`NC1(c2ccc(-c3c(-c4ccccc4)oc4c(-c5c[nH]nc5C(F)(F)F)cccc4c3=O)cc2)CCC1` [Example 76, 3-[4-(1-Amino-cyclobutyl)-phenyl]-2-phenyl-8-(3-trifluoromethyl-1H-pyrazol-4-yl)-chromen-4-one]: the IC50 on AKT1 is no more than 1000 nM; at AKT2, 1000 to 10000 nM; at AKT3, 1000 to 10000 nM.
`NC1(c2ccc(-c3c(-c4ccccc4)oc4c(F)cccc4c3=O)cc2)CCC1` [Example 2, 3-[4-(1-Amino-cyclobutyl)-phenyl]-8-fluoro-2-phenyl-chromen-4-one]: the half-maximal inhibitory concentration (IC50) on AKT1 is no more than 1000 nM; at AKT2, 1000 to 10000 nM; on AKT3, greater than 10000 nM.
The like results for `NC1(c2ccc(-c3c(-c4ccccc4)oc4c(-n5ccccc5=O)nccc4c3=O)cc2)CCC1` [Example 104, 3-[4-(1-Amino-cyclobutyl)-phenyl]-8-(2-oxo-2H-pyridin-1-yl)-2-phenyl-pyrano[2,3-c]pyridin-4-one hydrochloride] were, in that order, 1000 to 10000 nM, greater than 10000 nM and greater than 10000 nM.
The like results for `Cn1ncc2ccc3c(=O)c(-c4ccc(C5(N)CCC5)nc4)c(-c4ccccc4)oc3c21` [Example 71, 7-[6-(1-Amino-cyclobutyl)-pyridin-3-yl]-1-methyl-8-phenyl-1H-9-oxa-1,2-diaza-cyclopenta[a]naphthalen-6-one hydrochloride] were, in that order, no more than 1000 nM, greater than 10000 nM and greater than 10000 nM.
For `NC1(c2ccc(-c3c(-c4ccccc4)oc4c(C5CC5)nccc4c3=O)cc2)CCC1` [Example 126, hydrochloride] the same measures were no more than 1000 nM, 1000 to 10000 nM and greater than 10000 nM.
For `NC1(c2ccc(-c3c(-c4ccccc4)oc4c(-c5cccnc5)nccc4c3=O)cc2)CCC1` [Example 123, 3-(4-(1-aminocyclobutyl)phenyl)-2-phenyl-8-(pyridin-3-yl)-4H-pyrano[2,3-c]pyridin-4-one hydrochloride], the IC50 at AKT1 was no more than 1000 nM; on AKT2 it was no more than 1000 nM; on AKT3, 1000 to 10000 nM.
In the case of `COc1cc2oc(-c3ccccc3)c(-c3ccc(C4(N)CCC4)cc3)c(=O)c2cc1C(N)=O` [Example 10, 3-[4-(1-Amino-cyclobutyl)-phenyl]-7-methoxy-4-oxo-2-phenyl-4H-chromene-6-carboxylic acid amide], the IC50 on AKT1 is 1000 to 10000 nM; on AKT2 it was no more than 1000 nM; on AKT3 it was 1000 to 10000 nM.
Regarding `Cc1nccc2c(=O)c(-c3ccc(C4(N)CCC4)cc3)c(-c3ccccc3)oc12` [Example 120, 3-(4-(1-aminocyclobutyl)phenyl)-8-methyl-2-phenyl-4H-pyrano[2,3c]pyridin-4-one], the IC50 at AKT1 was 1000 to 10000 nM; on AKT2, 1000 to 10000 nM; on AKT3, greater than 10000 nM.
In the case of `N#CCn1ncc2ccc3c(=O)c(-c4ccc(C5(N)CCC5)cc4)c(-c4ccccc4)oc3c21` [Example 111, 2-(7-(4-(1-aminocyclobutyl)phenyl)-6-oxo-8-phenylpyrano[3,2-g]indazol-1(6H)-v1)acetonitrile], the IC50 on AKT1 is no more than 1000 nM; at AKT2 it was 1000 to 10000 nM; at AKT3 it was 1000 to 10000 nM.
On to `Nc1ccc2c(=O)c(-c3ccc(C4(N)CCC4)cc3)c(-c3ccccc3)oc2c1` [Example 47, 7-Amino-3-[4-(1-amino-cyclobutyl)-phenyl]-2-phenyl-1-benzopyran-4-one.TFA], for which the IC50 was 1000 to 10000 nM at AKT1, 1000 to 10000 nM at AKT2 and greater than 10000 nM on AKT3.
With `NC1(c2ccc(-c3c(-c4ccccc4)oc4c(-n5ccnc5)nccc4c3=O)cc2)CCC1` [Example 114, 3-(4-(1-aminocyclobutyl)phenyl)-8-(1H-imidazol-1-yl)-2-phenyl-4H-pyrano[2,3-c]pyridin-4-one], the figures for the IC50 on AKT1, on AKT2 and on AKT3 were no more than 1000 nM, 1000 to 10000 nM and greater than 10000 nM, respectively.
For the compound `Cn1cc2ccc3c(=O)c(-c4ccc(C5(N)CCC5)cc4)c(-c4ccccc4)oc3c2n1` [Example 59, 7-[4-(1-Amino-cyclobutyl)-phenyl]-2-methyl-8-phenyl-2H-9-oxa-1,2-diaza-cyclopenta[a]naphthalen-6-one], the concentration for half-maximal inhibition (IC50) on AKT1 was no more than 1000 nM; on AKT2 it was no more than 1000 nM; on AKT3, 1000 to 10000 nM.
As to `CC(C)(C#N)c1ccc(-c2c(-c3ccccc3)oc3c(ccn4c(=O)[nH]nc34)c2=O)cc1` [Example 70, 2-[4-(3,6-Dioxo-8-phenyl-2,6-dihydro-3H-9-oxa-1,2,3a-triaza-cyclopenta[a]naphthalen-7-yl)-phenyl]-2-methyl-propionitrile], the IC50 on AKT1 is no more than 1000 nM; on AKT2, greater than 10000 nM; at AKT3 it was greater than 10000 nM.
As for `NC1(c2ccc(-c3c(-c4ccccc4)oc4ncccc4c3=O)cc2)CCC1` [Example 34, 3-[4-(1-Amino-cyclobutyl)-phenyl]-2-phenyl-pyrano[2,3-b]pyridin-4-one], the half-inhibitory concentration (IC50) on AKT1 was 1000 to 10000 nM; at AKT2 it was 1000 to 10000 nM; at AKT3, greater than 10000 nM.
As to `Cn1ccc2c(=O)c(-c3ccc(C4(N)CCC4)cc3)c(-c3ccccc3)oc2c1=O` [Example 41, 3-[4-(1-Amino-cyclobutyl)-phenyl]-7-methyl-2-phenyl-7H-pyrano[2,3-c]pyridine-4,8-dione hydrochloride], the IC50 on AKT1 is greater than 10000 nM; at AKT2, 1000 to 10000 nM; on AKT3, greater than 10000 nM.
As for `N#CCOc1ccc2c(=O)c(-c3ccc(C4(N)CCC4)cc3)c(-c3ccccc3)oc2c1Br` [Example 110, 2-(3-(4-(1-aminocyclobutyl)phenyl)-8-bromo-4-oxo-2-phenyl-4H-chromen-7-yloxy)acetonitrile], the IC50 is no more than 1000 nM on AKT1, 1000 to 10000 nM on AKT2 and 1000 to 10000 nM at AKT3.
In the case of `CC(C)n1ncc2ccc3c(=O)c(-c4ccc(C5(N)CCC5)cc4)c(-c4ccccc4)oc3c21` [Example 83, 7-[4-(1-Amino-cyclobutyl)-phenyl]-1-isopropyl-8-phenyl-1H-9-oxa-1,2-diaza-cyclopenta[a]naphthalen-6-one hydrochloride], the half-inhibitory concentration (IC50) at AKT1 was no more than 1000 nM; on AKT2, no more than 1000 nM; on AKT3, 1000 to 10000 nM.
On to `NC1(c2ccc(-c3c(-c4ccccc4)oc4c(ccc5nc(C(F)F)[nH]c54)c3=O)cc2)CCC1` [Example 95, 7-[4-(1-Amino-cyclobutyl)-phenyl]-2-difluoromethyl-8-phenyl-1H-chromeno[7,8-d]imidazol-6-one], for which the concentration for half-maximal inhibition (IC50) on AKT1 was no more than 1000 nM; at AKT2, no more than 1000 nM; at AKT3 it was 1000 to 10000 nM.
As to `NC1(c2ccc(-c3c(-c4ccccc4)oc4ccc(F)cc4c3=O)cc2)CCC1` [Example 1, 3-[4-(1-Amino-cyclobutyl)-phenyl]-6-fluoro-2-phenyl-chromen-4-one], the values for the IC50 on AKT1, at AKT2 and on AKT3 were 1000 to 10000 nM, 1000 to 10000 nM and greater than 10000 nM, respectively.
Consider `NC1(c2ccc(-c3c(-c4ccccc4)oc4c(ccn5c(=O)[nH]nc45)c3=O)cn2)CCC1` [Example 69, 7-[6-(1-Amino-cyclobutyl)-pyridin-3-yl]-8-phenyl-2H-9-oxa-1,2,3a-triaza-cyclopenta[a]naphthalene-3,6-dione], for which the half-maximal inhibitory concentration (IC50) at AKT1 is no more than 1000 nM; at AKT2, 1000 to 10000 nM; at AKT3, greater than 10000 nM.
For `Nc1ccc2c(=O)c(-c3ccc(C4(N)CCC4)cc3)c(-c3ccccc3)oc2c1O` [Example 93, 7-Amino-3-[4-(1-amino-cyclobutyl)-phenyl]-8-hydroxy-2-phenyl-chromen-4-one] the same measures were no more than 1000 nM, 1000 to 10000 nM and greater than 10000 nM.
Take `NC1(c2ccc(-c3c(-c4ccccc4)oc4c(-c5cn[nH]c5)nccc4c3=O)cc2)CCC1` [Example 80, 3-[4-(1-Amino-cyclobutyl)-phenyl]-2-phenyl-8-(1H-pyrazol-4-yl)-pyrano[2,3-c]pyridin-4-one hydrochloride]: the half-maximal inhibitory concentration (IC50) at AKT1, at AKT2 and at AKT3 was no more than 1000 nM in each case.
`NC1(c2ccc(-c3c(-c4ccccc4)oc4c(N5CCNC(=O)C5)cccc4c3=O)cc2)CCC1` [Example 77, 4-{3-[4-(1-Amino-cyclobutyl)-phenyl]-4-oxo-2-phenyl-4H-chromen-8-yl}-piperazin-2-one]: the IC50 on AKT1 was no more than 1000 nM; at AKT2, 1000 to 10000 nM; on AKT3 it was 1000 to 10000 nM.
Turning to `NC1(c2ccc(-c3c(-c4ccccc4)oc4c(-c5cccc(F)c5C(=O)O)nccc4c3=O)cc2)CCC1` [Example 121, 2-(3-(4-(1-aminocyclobutyl)phenyl)-4-oxo-2-phenyl-4H-pyrano[2,3-c]pyridin-8-yl)-6-fluorobenzoic acid], the results for the IC50 on AKT1, on AKT2 and on AKT3 were 1000 to 10000 nM, greater than 10000 nM and greater than 10000 nM, respectively.
With `COc1nccc2c(=O)c(-c3ccc(C4(N)CCC4)cc3)c(-c3ccccc3)oc12` [Example 39, 3-[4-(1-Amino-cyclobutyl)-phenyl]-8-methoxy-2-phenyl-pyrano[2,3-c]pyridin-4-one hydrochloride], the half-inhibitory concentration (IC50) is no more than 1000 nM at AKT1, no more than 1000 nM on AKT2 and 1000 to 10000 nM on AKT3.
